Assay results published in US20170252442A1, “PHOTOHEXER COMPOUNDS AND PHARMACEUTICAL COMPOSITION AND USE THEREOF” (RAINBOW PHARMATECH LLC, priority 2014, published 2017).

How the values were obtained:
SW-620 cells = assay: MTT assay, photodynamic therapy on SW-620 cells; type: cell-based, human
Excerpt: (§1) The cells in logarithmic growth phase were collected and inoculated on 24-well culture plates. When reaching 70%-80% confluence, cells were divided randomly into the following groups: control (the parallel control group without photosensitizer and irradiation), irradiation (irradiation treatment alone without photosensitizer); (photosensitizer treatment alone without irradiation), photodynamic treatment (treatment by photosensitizer in combination with irradiation). For the photosensitizer alone treatment group and photodynamic treatment group, an appropriate amount of Photohexer-1 (P-1) or Photohexer-2 (P-2) was respectively added away from light to give a final concentration of 0.8, 1.6, 3.2, 6.4 μM. Each group set 3 replicates. Cells were incubated with the active agent, different treatments were carried out according to the grouping. […] After treatment and digestion of each group of cells, it was inoculated into a 96-well plate at 100 μL/well, and four wells were set for each treatment. MTT assay was performed after 24 h from inoculation: 20 μL MTT solution was added to each well under the condition away from light, and the culture was continued for 4 hours. 150 μL DMSO was added to each well after discarding the supernatant. After 15 min of dissolution, the absorbance value (OD value) was measured using a microplate reader and the relative survival rate of cells was calculated according to the following formula: […]

MCF-7 cells = assay: MTT assay, photodynamic therapy on MCF-7 cells; type: cell-based, human
Excerpt: as §1

MDA-MB-231 cells = assay: MTT assay, photodynamic therapy on MDA-MB-231 cells; type: cell-based, human
Excerpt: as §1

SGC7901 cells = assay: MTT assay, photodynamic therapy on SGC7901 cells; type: cell-based, human
Excerpt: as §1

[1] = Solubility determination in water; type: physicochemical; settings: each ml of water; room temperature; read-out: solubility in water (amount dissolved by each ml of water)
Description: The solubility of Photohexer-1 and Photohexer-2 in water was determined by conventional methods in the art.

[2] = 6.4 μM combined with 5.2 J/cm^2 light irradiation
[3] = 6.4 μM combined with 10.4 J/cm^2 light irradiation
[4] = 0.8 μM alone treatment, without irradiation
[5] = 0.8 μM combined with 2.6 J/cm^2 light irradiation
[6] = 0.8 μM combined with 5.2 J/cm^2 light irradiation
[7] = 0.8 μM combined with 10.4 J/cm^2 light irradiation
[8] = 1.6 μM alone treatment, without irradiation
[9] = 1.6 μM combined with 2.6 J/cm^2 light irradiation
[10] = 1.6 μM combined with 5.2 J/cm^2 light irradiation
[11] = 1.6 μM combined with 10.4 J/cm^2 light irradiation
[12] = 3.2 μM alone treatment, without irradiation
[13] = 3.2 μM combined with 2.6 J/cm^2 light irradiation
[14] = 3.2 μM combined with 5.2 J/cm^2 light irradiation
[15] = 3.2 μM combined with 10.4 J/cm^2 light irradiation
[16] = 6.4 μM alone treatment, without irradiation
[17] = 6.4 μM combined with 2.6 J/cm^2 light irradiation

SMILES: C=CC1=C(C)c2cc3[nH]c(cc4nc(cc5[nH]c(cc1n2)c(C)c5CCC(=O)[O-])C(CCC(=O)[O-])=C4C)c(C)c3C(C)OCCCCCC.[Na+].[Na+] (centres unmarked) [Photohexer P-1, 2-(1-hexyloxyethyl)-6,7-bis(propionatesodium)-1,3,5,8-tetramethyl-4-vinylporphyrin]
- Cell survival rate (SW-620 cells; [2]): 75.53 ± 1.03%
- Cell survival rate (SW-620 cells; [3]): 68.33 ± 1.11%
- sensitivity compared between P-1 and P-2 (MCF-7 cells): more sensitive than P-2
- Cell survival rate (MCF-7 cells; [4]): 102.94 ± 3.04%
- Cell survival rate (MCF-7 cells; [5]): 78.02 ± 4.55%
- Cell survival rate (MCF-7 cells; [6]): 68.03 ± 3.97%
- Cell survival rate (MCF-7 cells; [7]): 63.99 ± 4.42%
- Cell survival rate (MCF-7 cells; [8]): 82.48 ± 2.24%
- Cell survival rate (MCF-7 cells; [9]): 65.32 ± 2.43%
- Cell survival rate (MCF-7 cells; [10]): 47.92 ± 2.82%
- Cell survival rate (MCF-7 cells; [11]): 49.71 ± 3.94%
- Cell survival rate (MCF-7 cells; [12]): 71.23 ± 1.76%
- Cell survival rate (MCF-7 cells; [13]): 54.13 ± 2.04%
- Cell survival rate (MCF-7 cells; [14]): 45.96 ± 1.76%
- Cell survival rate (MCF-7 cells; [15]): 46.98 ± 2.67%
- Cell survival rate (MCF-7 cells; [16]): 60.81 ± 1.04%
- Cell survival rate (MCF-7 cells; [17]): 50.88 ± 1.02%
- Cell survival rate (MCF-7 cells; [2]): 41.69 ± 1.02%
- Cell survival rate (MCF-7 cells; [3]): 44.28 ± 1.07%
- Cell survival rate (MDA-MB-231 cells; [4]): 97.82 ± 3.12%
- Cell survival rate (MDA-MB-231 cells; [5]): 93.29 ± 3.66%
- Cell survival rate (MDA-MB-231 cells; [6]): 90.67 ± 4.08%
- Cell survival rate (MDA-MB-231 cells; [7]): 88.23 ± 4.09%
- Cell survival rate (MDA-MB-231 cells; [8]): 91.07 ± 2.02%
- Cell survival rate (MDA-MB-231 cells; [9]): 81.63 ± 2.87%
- Cell survival rate (MDA-MB-231 cells; [10]): 76.33 ± 2.91%
- Cell survival rate (MDA-MB-231 cells; [11]): 71.13 ± 3.79%
- Cell survival rate (MDA-MB-231 cells; [12]): 75.52 ± 1.07%
- Cell survival rate (MDA-MB-231 cells; [13]): 70.24 ± 2.03%
- Cell survival rate (MDA-MB-231 cells; [14]): 68.08 ± 1.43%
- Cell survival rate (MDA-MB-231 cells; [15]): 61.29 ± 2.27%
- Cell survival rate (MDA-MB-231 cells; [16]): 70.10 ± 0.99%
- Cell survival rate (MDA-MB-231 cells; [17]): 62.22 ± 1.04%
- Cell survival rate (MDA-MB-231 cells; [2]): 64.88 ± 1.07%
- Cell survival rate (MDA-MB-231 cells; [3]): 56.27 ± 1.06%
- Cell survival rate (SGC7901 cells; [4]): 100.39 ± 0.20%
- Cell survival rate (SGC7901 cells; [5]): 90.25 ± 2.16%
- Cell survival rate (SGC7901 cells; [6]): 92.41 ± 0.63%
- Cell survival rate (SGC7901 cells; [7]): 92.26 ± 1.16%
- Cell survival rate (SGC7901 cells; [8]): 99.22 ± 1.37%
- Cell survival rate (SGC7901 cells; [9]): 91.19 ± 2.89%
- Cell survival rate (SGC7901 cells; [10]): 92.29 ± 0.15%
- Cell survival rate (SGC7901 cells; [11]): 89.21 ± 0.24%
- Cell survival rate (SGC7901 cells; [12]): 95.80 ± 1.59%
- Cell survival rate (SGC7901 cells; [13]): 88.70 ± 1.24%
- Cell survival rate (SGC7901 cells; [14]): 85.49 ± 0.99%
- Cell survival rate (SGC7901 cells; [15]): 77.02 ± 0.04%
- Cell survival rate (SGC7901 cells; [16]): 89.77 ± 4.99%
- Cell survival rate (SGC7901 cells; [17]): 77.76 ± 0.22%
- Cell survival rate (SGC7901 cells; [2]): 69.94 ± 0.56%
- Cell survival rate (SGC7901 cells; [3]): 38.34 ± 0.13%
- killing effect of photodynamic therapy (SGC7901 cells; drug-dose and light-intensity dependent): obvious killing effect
- solubility [1]: ~3300 µg/mL
